Here are results for one substance from patent US20110009345A1 (priority 2009, published 2011).

No end group written: not given here.

This series concerns adjuvant-induced arthritis. The settings on record: male Sprague-Dawley rats, by gavage during 10 days.

On to “YGSRS [peptide, tyrosine-glycine-serine-arginine-serine]”, for which the “effect on body weight” value is “without inducing weight loss”.
